Consider 13 substances from patent publication US7906480B2, “Use of a parathyroid hormone peptide analogs for the treatment of vaginal atrophy” (priority 2002, dated 2011).

Entries after “also recorded” stand apart in the source; their conditions may differ. Like-named read-outs stand apart in the source and are kept apart here. No end group written: not given here.

The subject of assay [1] is cultured human keratinocytes. The settings on record: in vitro, previously shown in U.S. Pat. Nos. 5,527,772, 5,840,690 and 6,066,618; cited from earlier work.
For assay [2], the target named is T1, PTHPTHrP receptor (Homo sapiens, UniProt Q03431).
T1 sequence (Q03431 27-593): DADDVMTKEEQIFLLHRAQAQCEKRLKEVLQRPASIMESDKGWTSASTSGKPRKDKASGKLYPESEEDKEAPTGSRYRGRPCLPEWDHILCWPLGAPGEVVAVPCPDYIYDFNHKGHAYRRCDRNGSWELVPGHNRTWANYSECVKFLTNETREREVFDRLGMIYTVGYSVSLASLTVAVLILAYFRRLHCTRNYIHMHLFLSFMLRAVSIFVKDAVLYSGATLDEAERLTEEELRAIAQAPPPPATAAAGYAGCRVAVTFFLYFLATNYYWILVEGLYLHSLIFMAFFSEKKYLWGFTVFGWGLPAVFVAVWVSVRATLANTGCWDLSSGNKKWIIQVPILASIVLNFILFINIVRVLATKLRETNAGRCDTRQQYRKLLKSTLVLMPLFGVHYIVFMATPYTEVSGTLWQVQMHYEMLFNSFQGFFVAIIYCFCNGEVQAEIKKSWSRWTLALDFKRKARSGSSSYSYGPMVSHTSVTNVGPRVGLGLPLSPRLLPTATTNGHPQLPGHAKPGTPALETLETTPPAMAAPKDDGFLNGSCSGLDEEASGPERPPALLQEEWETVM
The settings on record: cited from earlier work.

Another assay relates to mouse vaginal cells. Put plainly: tritiated thymidine incorporation into DNA of cultured mouse vaginal epithelial cells. It is filed as cell-based, SKH-1 hairless mice. On the procedure:
The vaginas from five SKH-1 hairless mice were harvested, washed, and placed in trypsin 1× overnight. From each, the vaginal epithelium was peeled and rinsed in 0.02% EDTA solution and centrifuged to isolate the cells. The cells were rinsed in media, centrifuged, and plated into a 100 mm dish atop a layer of irradiated 3T3 cells containing media as is used for keratinocytes and described above. The cells were grown and passed into 24 well plates for tritiated thymidine incorporation as described above. Cells were treated with either a placebo vehicle or with 1×10^−7 M PTH(1-34) for 24 hours. The cells were harvested and the DNA was extracted and counted using a beta liquid scintillation counter. The amount of tritiated thymidine recovered in the DNA is a measure of DNA synthesis in the cells and is synonymous with cellular proliferative activity.
For orientation: Uptake of a labelled nucleoside into DNA is a usual measure of proliferation.

Assay [3] addresses T1, PTHPTHrP receptor. The settings on record: cited from earlier work. The source holds these as a separate data set.
The next assay concerns the target hPTH-2 receptor (Homo sapiens, UniProt P49190). The settings on record: cited from earlier work.

Chain of hPTH-2 receptor (P49190 25-550): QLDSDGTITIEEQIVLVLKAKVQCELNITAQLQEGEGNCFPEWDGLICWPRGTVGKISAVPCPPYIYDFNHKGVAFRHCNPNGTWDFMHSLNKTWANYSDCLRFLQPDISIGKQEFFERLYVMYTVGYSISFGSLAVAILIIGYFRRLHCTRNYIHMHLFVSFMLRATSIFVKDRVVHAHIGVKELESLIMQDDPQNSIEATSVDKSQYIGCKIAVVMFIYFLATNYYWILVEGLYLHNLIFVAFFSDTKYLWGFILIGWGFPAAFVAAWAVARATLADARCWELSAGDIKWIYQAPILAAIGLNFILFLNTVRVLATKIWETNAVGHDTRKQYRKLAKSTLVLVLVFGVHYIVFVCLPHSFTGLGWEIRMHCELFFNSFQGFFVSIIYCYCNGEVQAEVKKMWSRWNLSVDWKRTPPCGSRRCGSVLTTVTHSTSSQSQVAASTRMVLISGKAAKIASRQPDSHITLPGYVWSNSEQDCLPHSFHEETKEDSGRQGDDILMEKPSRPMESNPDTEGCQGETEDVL

For “bPTHrP(5-36) (HQLLHDKGKSIQDLRRRFFLHHLIAEIHTAEI; listed as Homo sapiens) [printed only in b18]”, in assay [1], the “block of inhibition of proliferation or stimulation of differentiation by hPTH(1-34), hPTHrP(1-34), or 1,25(OH)2D3” value is on record as “block the inhibition of proliferation or stimulation of differentiation”.
In the case of “hPTH(7-31) (LMHNLGKHLNSMERVEWLRKKLQDV; listed as Homo sapiens)”, in assay [1], the “block of inhibition of proliferation or stimulation of differentiation by hPTH(1-34), hPTHrP(1-34), or 1,25(OH)2D3” value is “block the inhibition of proliferation or stimulation of differentiation”.
As for “hPTH(15-34) (LNSMERVEWLRKKLQDVHNF; listed as Homo sapiens)”, the “block of binding of hPTH(1-34) or hPTHrP(1-34) to the PTHPTHrP receptor” value with PTHPTHrP receptor [2] is listed as “can block the binding”.
As to “hPTH(1-34) (SVSEIQLMHNLGKHLNSMERVEWLRKKLQDVHNF; listed as Homo sapiens)”, in the assay on mouse vaginal cells (1×10^−7 M for 24 hours, versus placebo vehicle, FIG. 1), the “incorporation of tritiated thymidine into the DNA (DNA synthesis)” value is listed as “increased”. Further, the vaginal cell growth result in the assay on mouse vaginal cells (conclusion from FIG. 1, mouse vaginal cells in vitro) was “can stimulate vaginal cell growth; also recorded: can stimulate vaginal cell-growth”.
Take “[Nle^8,18,Tyr^34]bPTH(7-34),Amide (FXHNLGKHLSSXERVEWLRKKLQDVHNY; norleucine at 8,18; C-terminal amide; Bovine; VARIANT (2)..(12) Xaa = Nle) [[Nle^8,18, Tyr^34]bPTH (7-34)NH2]”: in assay [1], the “block of inhibition of proliferation or stimulation of differentiation by hPTH(1-34), hPTHrP(1-34), or 1,25(OH)2D3” value is “block the inhibition of proliferation or stimulation of differentiation”.
As to “[Leu^11,D-Trp^12]hPTHrP(7-34),Amide [[Leu^11,D-Trp^12]hPTHrP(7-34)NH2]”, in the assay with PTHPTHrP receptor [3], the “antagonist function at the hPTH/PTHrP receptor” value is given as “highly potent antagonist”.
On to hPTHrP(5-34), for which the “block of inhibition of proliferation or stimulation of differentiation by hPTH(1-34), hPTHrP(1-34), or 1,25(OH)2D3” value in assay [1] is “block the inhibition of proliferation or stimulation of differentiation”.
For “hPTH(5-34) (IQLMHNLGKHLNSMERVEWLRKKLQDVHNF; listed as Homo sapiens)”, the “block of inhibition of proliferation or stimulation of differentiation by hPTH(1-34), hPTHrP(1-34), or 1,25(OH)2D3” value in assay [1] is recorded as “block the inhibition of proliferation or stimulation of differentiation”.
Regarding “hPTH(5-36) (IQLMHNLGKHLNSMERVEWLRKKLQDVHNFVA; listed as Homo sapiens)”, the “block of inhibition of proliferation or stimulation of differentiation by hPTH(1-34), hPTHrP(1-34), or 1,25(OH)2D3” value in assay [1] is “block the inhibition of proliferation or stimulation of differentiation”.
With “[Tyr^34]bPTH(7-34),Amide (FMHNLGKHLSSMERVEWLRKKLQDVHNY-NH2) [[Tyr^34]bPTH (7-34)NH2]”, the “block of inhibition of proliferation or stimulation of differentiation by hPTH(1-34), hPTHrP(1-34), or 1,25(OH)2D3” value in assay [1] is recorded as “block the inhibition of proliferation or stimulation of differentiation”.
For “hPTHrP(15-34) (IQDLRRRFFLHHLIAEIHTA; listed as Homo sapiens)”, the “block of binding of hPTH(1-34) or hPTHrP(1-34) to the PTHPTHrP receptor” value with PTHPTHrP receptor [2] is given as “can block the binding”.
In the case of “hPTHrP(7-31) (LLHDKGKSIQDLRRRFFLHHLIAEI; listed as Homo sapiens)”, the “block of inhibition of proliferation or stimulation of differentiation by hPTH(1-34), hPTHrP(1-34), or 1,25(OH)2D3” value in assay [1] is on record as “block the inhibition of proliferation or stimulation of differentiation”.
Turning to “[Trp^23]hPTHrP(1-36) (AVSEHQLLHDKGKSIQDLRRRFWLHHLIAEIHTAEI; listed as Homo sapiens) [[Trp^23]hPTHrP (1-36)]”, the “antagonist function at the PTH-2 receptor” value is “hPTH-2 receptor antagonist” with hPTH-2 receptor and “particularly potent antagonist” in the assay with hPTH-2 receptor (listed as [Trp^23]PTHrP(1-36)).
